pIC50: −log10 of the molar value. Values after ≈ are worked out from the molar mass of the structure shown. Active and inactive are the calls of the source. The calls are words filed in the database; no cut-off is given here.
Key:
[1] = Solubility at pH 7.4; assay type: physicochemical; conditions: buffer
PC-3 = experiment: cells; conditions: Homo sapiens, PC-3, 72 h
MDA-MB-361 = experiment: cells; conditions: Homo sapiens, MDA-MB-361, 72 h
in vitro = conditions: rat
[2] = biological target: Serine/threonine-protein kinase mTOR (Homo sapiens, UniProt P42345); experiment: Inhibition of mTOR by DELFIA
[3] = Metabolic stability in mouse liver microsomes assessed as half life; assay type: ADME, Microsome
[4] = Solubility at pH 3; assay type: physicochemical; conditions: buffer
cells = conditions: Homo sapiens, MDA-MB-361, 4 h
[5] = biological target: Phosphatidylinositol 4,5-bisphosphate 3-kinase catalytic subunit alpha isoform (Homo sapiens, UniProt P42336)
Phosphatidylinositol 4,5-bisphosphate 3-kinase catalytic subunit alpha isoform, sequence (P42336 whole entry, canonical isoform): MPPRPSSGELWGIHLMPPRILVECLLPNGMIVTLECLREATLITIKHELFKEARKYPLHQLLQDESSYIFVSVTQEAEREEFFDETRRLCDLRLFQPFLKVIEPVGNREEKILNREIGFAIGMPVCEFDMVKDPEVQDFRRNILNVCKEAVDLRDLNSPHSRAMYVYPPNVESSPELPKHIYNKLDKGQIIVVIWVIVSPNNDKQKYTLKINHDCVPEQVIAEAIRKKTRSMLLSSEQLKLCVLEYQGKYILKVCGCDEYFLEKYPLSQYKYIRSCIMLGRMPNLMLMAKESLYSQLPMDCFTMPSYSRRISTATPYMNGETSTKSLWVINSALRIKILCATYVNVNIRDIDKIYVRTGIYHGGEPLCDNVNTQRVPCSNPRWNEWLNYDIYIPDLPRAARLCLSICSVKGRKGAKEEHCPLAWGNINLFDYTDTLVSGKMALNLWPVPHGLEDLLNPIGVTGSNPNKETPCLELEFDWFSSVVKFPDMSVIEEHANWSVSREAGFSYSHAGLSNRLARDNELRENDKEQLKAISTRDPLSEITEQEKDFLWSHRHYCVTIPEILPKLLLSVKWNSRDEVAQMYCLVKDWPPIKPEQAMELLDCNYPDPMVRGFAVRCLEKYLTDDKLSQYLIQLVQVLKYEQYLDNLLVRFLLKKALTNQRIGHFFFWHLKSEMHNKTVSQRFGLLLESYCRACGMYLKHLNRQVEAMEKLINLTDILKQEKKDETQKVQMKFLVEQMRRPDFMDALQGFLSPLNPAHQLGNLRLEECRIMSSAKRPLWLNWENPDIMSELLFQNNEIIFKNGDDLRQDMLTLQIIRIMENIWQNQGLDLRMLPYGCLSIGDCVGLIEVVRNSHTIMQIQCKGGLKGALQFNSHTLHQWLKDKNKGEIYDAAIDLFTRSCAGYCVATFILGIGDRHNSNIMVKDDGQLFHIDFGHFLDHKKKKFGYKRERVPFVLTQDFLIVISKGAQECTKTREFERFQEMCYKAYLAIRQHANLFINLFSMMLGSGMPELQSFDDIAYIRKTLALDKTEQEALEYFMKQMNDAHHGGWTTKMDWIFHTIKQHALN

[6] = biological target: Phosphatidylinositol 4,5-bisphosphate 3-kinase catalytic subunit gamma isoform (Homo sapiens, UniProt P48736); experiment: Inhibition of human PI3Kgamma by fluorescence polarization format assay
Phosphatidylinositol 4,5-bisphosphate 3-kinase catalytic subunit gamma isoform, sequence (P48736 whole entry, canonical isoform): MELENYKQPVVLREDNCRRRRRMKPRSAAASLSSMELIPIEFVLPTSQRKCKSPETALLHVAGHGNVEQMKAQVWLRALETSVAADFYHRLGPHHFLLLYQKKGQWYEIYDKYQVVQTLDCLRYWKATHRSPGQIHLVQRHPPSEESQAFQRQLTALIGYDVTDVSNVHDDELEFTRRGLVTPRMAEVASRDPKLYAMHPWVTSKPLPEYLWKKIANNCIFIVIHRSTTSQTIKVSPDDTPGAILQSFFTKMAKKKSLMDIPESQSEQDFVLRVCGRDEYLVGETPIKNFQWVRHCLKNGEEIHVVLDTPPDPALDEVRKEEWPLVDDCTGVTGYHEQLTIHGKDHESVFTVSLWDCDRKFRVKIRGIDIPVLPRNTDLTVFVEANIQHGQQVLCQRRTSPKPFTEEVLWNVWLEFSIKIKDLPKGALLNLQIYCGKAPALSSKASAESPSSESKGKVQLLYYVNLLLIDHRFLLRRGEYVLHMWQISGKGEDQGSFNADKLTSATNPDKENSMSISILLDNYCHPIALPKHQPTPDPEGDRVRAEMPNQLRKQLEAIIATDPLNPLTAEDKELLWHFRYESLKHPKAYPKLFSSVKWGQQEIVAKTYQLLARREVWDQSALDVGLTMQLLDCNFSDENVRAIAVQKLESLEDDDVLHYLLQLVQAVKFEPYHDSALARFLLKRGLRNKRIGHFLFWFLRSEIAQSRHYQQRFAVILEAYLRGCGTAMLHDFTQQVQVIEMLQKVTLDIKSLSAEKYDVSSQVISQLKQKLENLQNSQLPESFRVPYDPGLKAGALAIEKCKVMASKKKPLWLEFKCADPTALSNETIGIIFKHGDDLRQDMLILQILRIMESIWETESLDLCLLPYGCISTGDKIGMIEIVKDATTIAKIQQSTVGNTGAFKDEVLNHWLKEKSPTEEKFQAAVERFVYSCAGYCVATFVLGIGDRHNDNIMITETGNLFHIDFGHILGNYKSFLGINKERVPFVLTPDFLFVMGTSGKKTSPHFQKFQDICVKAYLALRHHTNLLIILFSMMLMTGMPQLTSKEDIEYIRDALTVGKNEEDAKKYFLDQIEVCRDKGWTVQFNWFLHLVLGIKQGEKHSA

[7] = Metabolic stability in human liver microsomes assessed as half life; assay type: ADME, Microsome
[8] = Drug level in human MDA-MB-361 cells implanted mouse tumor at 50 mg/kg, iv; assay type: ADME, organism-based, Neoplasm; set-up: dose 50 mg/kg, route intravenous; conditions: in vivo
Mus musculus [9] = experiment: Antitumor activity against human MDA-MB-361 cells implanted in mouse assessed as suppression of Akt T308 phosphorylation at 50 mg/kg, iv; assay type: functional, organism-based; set-up: dose 50 mg/kg
Mus musculus [10] = experiment: Antitumor activity against human MDA-MB-361 cells implanted in mouse assessed as suppression of P70S6K phosphorylation at 50 mg/kg, iv; assay type: functional, organism-based; set-up: dose 50 mg/kg
Mus musculus [11] = experiment: Plasma concentration in human MDA-MB-361 cells implanted mouse at 50 mg/kg, iv; assay type: ADME, organism-based; set-up: dose 50 mg/kg, route intravenous; conditions: in vivo
Mus musculus [12] = experiment: Antitumor activity against human MDA-MB-361 cells implanted in mouse assessed as suppression of S6 phosphorylation at 50 mg/kg, iv; assay type: functional, organism-based; set-up: dose 50 mg/kg
Mus musculus [13] = experiment: Antitumor activity against human MDA-MB-361 cells implanted in mouse assessed as suppression of Akt S473 phosphorylation at 50 mg/kg, iv; assay type: functional, organism-based; set-up: dose 50 mg/kg
[14] = Inhibition of Akt T308 phosphorylation in human MDA-MB-361 cells by Western blotting; assay type: cell-based

Structure (SMILES)	solubility [1] [µg/mL]	pIC50 (PC-3)	pIC50 (MDA-MB-361)	pIC50 [2]	half-life (in vitro; liver microsomes) [min]	pIC50 [5]	pIC50 [6]	further results
Cn1nnc2c(N3CCOCC3)nc(-c3ccc(NC(=O)Nc4cccnc4)cc3)nc21	1 (≈ 2.32 µM)	6.55	6.70	8.53				half-life (in vitro; microsomes): 12 min
CCn1nnc2c(N3CCOCC3)nc(-c3ccc(NC(=O)Nc4ccc(C(=O)NCCN5CCN(C)CC5)cc4)cc3)nc21	1 (≈ 1.63 µM)	7.17	7.62	8.96	17	8.49		half-life [3]: 28 min; solubility [4]: 100 µg/mL (≈ 163 µM); pIC50 (cells): 7.13
O=C(Nc1ccc(-c2nc(N3CCOCC3)c3nnn(C4CC4)c3n2)cc1)Nc1cccs1		6.83	7.14	8.52	15			
CCn1nnc2c(N3CCOCC3)nc(-c3ccc(NC(=O)Nc4ccc(C(=O)NCCc5ccccn5)cc4)cc3)nc21	1 (≈ 1.69 µM)	7.06	7.44	8.92	23	8.17	7.66	half-life [3]: 19 min; solubility [4]: 4 µg/mL (≈ 6.75 µM); half-life [7]: 16 min; pIC50 (cells): 7.19
CC(C)n1nnc2c(N3CCOCC3)nc(-c3ccc(NC(=O)Nc4ccc(N(C)C)cc4)cc3)nc21		6.77	7.08	8.80	7			
OCc1cccc(-c2nc(N3CCOCC3)c3ncn(C4CCN(Cc5ccccc5)CC4)c3n2)c1				6.20				
CCn1nnc2c(N3CCOCC3)nc(-c3ccc(NC(=O)Nc4ccnc(C)c4)cc3)nc21	3 (≈ 6.53 µM)	6.60	6.71	7.68	11			
CCn1nnc2c(N3CCOCC3)nc(-c3ccc(NC(=O)Nc4ccc(C(=O)NCCN(C)C)cc4)cc3)nc21	> 100	7.28	7.89	9.30			7.92	Drug uptake [8]: 2130 ng/mL; Activity (Mus musculus [9]): Active; half-life [3]: 28 min; Activity (Mus musculus [10]): Active; Cp (Mus musculus [11]): 1229 ng/mL; Activity (Mus musculus [12]): Active; solubility [4]: > 100 µg/mL; half-life [7]: > 30 min; pIC50 (cells): 7.80; half-life (in vitro; microsomes): 29 min; Activity (Mus musculus [13]): Active
CC(C)n1nnc2c(N3CCOCC3)nc(-c3ccc(NC(=O)Nc4ccc(CO)cc4)cc3)nc21		7.26	> 7.52	9.49		8.46	7.61	pIC50 [14]: 8.10
O=C(Nc1ccc(-c2nc(N3CCOCC3)c3nnn(C4CC4)c3n2)cc1)Nc1cccnc1	1 (≈ 2.19 µM)	7.05	7.17	9.24	24	7.98	7.31	
O=C(Nc1ccncc1)Nc1ccc(-c2nc(N3CCOCC3)c3nnn(C4CC4)c3n2)cc1		7.15	7.51	9.08	21			
CC(C)n1nnc2c(N3CCOCC3)nc(-c3ccc(NC(=O)Nc4ccc(N5CCOCC5)cc4)cc3)nc21	1 (≈ 1.84 µM)	6.96	7.33	9.46	25			
CCn1nnc2c(N3CCOCC3)nc(-c3ccc(NC(=O)Nc4ccncc4)cc3)nc21	18 (≈ 40.4 µM)	7.31	7.46	9.20	27	8.30		
